{
  "source": "paper PMC8449657",
  "about": "“Identification of a self‐sufficient cytochrome P450 monooxygenase from Cupriavidus pinatubonensis JMP134 involved in 2‐hydroxyphenylacetic acid catabolism, via homogentisate pathway” (Microbial Biotechnology, 2021)",
  "target": "T1, OhpA (Cupriavidus pinatubonensis, UniProt Q46QG0)",
  "T1 construct": "gene Reut_B5278; full length, 783 aa, untagged as far as told; pBS1-ohpA (PBAD) expressed in Pseudomonas putida KT2440, assayed in cell extract",
  "T1 sequence (Q46QG0 1-783)": "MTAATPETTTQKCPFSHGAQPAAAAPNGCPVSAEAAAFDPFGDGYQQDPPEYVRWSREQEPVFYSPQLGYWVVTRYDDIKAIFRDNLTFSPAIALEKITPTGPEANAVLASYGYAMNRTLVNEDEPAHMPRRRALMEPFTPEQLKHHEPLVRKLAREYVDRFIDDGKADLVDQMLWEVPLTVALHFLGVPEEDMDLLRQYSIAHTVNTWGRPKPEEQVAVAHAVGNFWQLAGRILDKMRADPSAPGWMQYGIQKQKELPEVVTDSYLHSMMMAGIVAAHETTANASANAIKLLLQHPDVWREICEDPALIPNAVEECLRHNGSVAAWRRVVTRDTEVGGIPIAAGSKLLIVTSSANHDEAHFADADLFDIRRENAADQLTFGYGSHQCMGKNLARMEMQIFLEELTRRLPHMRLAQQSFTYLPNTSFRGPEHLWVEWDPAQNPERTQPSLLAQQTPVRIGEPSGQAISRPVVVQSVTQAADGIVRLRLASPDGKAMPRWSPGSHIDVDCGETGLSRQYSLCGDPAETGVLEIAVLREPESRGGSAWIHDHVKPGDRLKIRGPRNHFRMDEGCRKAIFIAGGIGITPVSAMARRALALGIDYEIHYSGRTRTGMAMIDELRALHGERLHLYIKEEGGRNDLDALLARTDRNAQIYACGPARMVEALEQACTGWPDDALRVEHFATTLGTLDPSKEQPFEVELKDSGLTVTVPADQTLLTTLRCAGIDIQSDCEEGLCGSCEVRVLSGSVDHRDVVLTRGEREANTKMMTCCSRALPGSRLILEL",
  "assay": "substrate-dependent NADH oxidation at […] nm in extract of P. putida KT2440 pBS1-ohpA",
  "format": "biochemical",
  "settings": "0.2 mM NADH, 100 uM 2-HPA, 1 uM FAD, 35 mM Tris/acetate pH 7.5",
  "data": [
    {"smiles": "NC(=O)C1=CN([C@@H]2O[C@H](COP(=O)(O)OP(=O)(O)OC[C@H]3O[C@@H](n4cnc5c(N)ncnc54)[C@H](O)[C@@H]3O)[C@@H](O)[C@H]2O)C=CC1", "note": "[NADH]", "values": [
      {"measurement": "substrate-dependent NADH oxidation at 340 nm in extract of P. putida KT2440 pBS1", "value": "we assayed the substrate‐dependent NADH oxidation in cell extracts of P. putida KT2440 harbouring pBS1‐ohpA"}
    ]}
  ]
}
